Data taken from US3954985A, “Method for inhibiting bacterial growth with certain selected 3-chloro-tetrahydro-1,3-oxazines or oxazolidines” (INTERx Research Corporation, priority 1975, dated 1976).
“And” between values parts separate entries of the source, which are not always exact repeats. Equal values may be shown once.

What was measured:
[1] = Stability in the neat state at 40°C (positive chlorine by thiosulfate titration); type: physicochemical
Source text: ^a Weight of sample analyzed.
^b Volume of 10^^-2 N sodium thiosulfate required to titrate
the sample at time (T).
^c Percentage of positive chlorine in the sample analyzed.

[2] = system: Pseud. aeruginosa ATCC 9027; assay: Bactericidal endpoint (time for complete sterilization), ATCC 9027; type: cell-based
Source text: (§1) The procedure employed to determine the antibacterial activity of 3-chloro-2,2,4,4-tetramethyl-tetrahydro1,3-oxazolidine and 3-chloro-2,2-[spiro-1'-methyl-4'-piperidinyl]-4,4-dimethyl-1,3-oxazolidinewas based primarily on a modification of the serial dilution method of analysis. However, instead of determining the minimum inhibitory concentration parameters for the compound investigated, applicants alternatively chose to determine the bactericidal endpoint for a given concentration of the compound investigated. Consequently, applicants' studies were established to determine the time required for complete sterilization of the micro-organism tested, when exposed to a given concentration of the compound investigated.
(§2) A stock solution of each compound identified above was prepared using an appropriate buffered solution.
(§3) For screening in the absence of a denaturing agent (e.g., horse serum) an equal volume of distilled water and the resulting solution was subjected to the screen.
(§4) For screening in the presence of a denaturing agent, a volume of the stock solution was diluted using an equal volume of 10% horse serum. When necessary, the final solution was adjusted to the desired pH using 1N HCl and the solution was permitted to stand at room temperature for thirty minutes prior to the screening procedure.
(§5) To 5 ml of the stock solution being evaluated, there was added 0.2 ml of an overnight broth culture containing the particular micro-organism being investigated (see above). At time intervals of 0.5, 1, 2, 3, 4, 5, . . . minutes, a loop of this suspension was subcultured into 5 ml of a sterile nutrient broth. All the samples were then incubated at 37°C for seven days with daily observation for evidence of bacterial growth. The time interval reported is for that sample in which no bacterial growth was observed after the incubation period.

Staph. aureus ATCC 6538 = assay: Bactericidal endpoint (time for complete sterilization), ATCC 6538; type: cell-based
Source text: as §1, §2, §3, §4, §5

[3] = system: Kleb. pneumoniae ATCC 10031; assay: Bactericidal endpoint (time for complete sterilization), ATCC 10031; type: cell-based
Source text: as §1, §2, §3, §4, §5

[4] = system: Staph. epidermidis ATCC 12228; assay: Bactericidal endpoint (time for complete sterilization), ATCC 12228; type: cell-based
Source text: as §1, §2, §3, §4, §5

6501 = assay: Bactericidal endpoint (time for complete sterilization), 6501; type: cell-based
Source text: as §1, §2, §3, §4, §5

[5] = system: Bord. bronchiseptica ATCC 4617; assay: Bactericidal endpoint (time for complete sterilization), ATCC 4617; type: cell-based
Source text: as §1, §2, §3, §4, §5

E. coli ATCC 10536 = assay: Bactericidal endpoint (time for complete sterilization), ATCC 10536; type: cell-based
Source text: as §1, §2, §3, §4, §5

[6] = 0.5 M NaH2PO4 pH 7.0, diluent not given, 19.13 × 10^-3 M (6026 ppm)
[7] = 0.5 M NaH2PO4 pH 710 (so in the source), H2O, 19.75 × 10^-3 M (6221 ppm)
[8] = 0.5 M NaOAc pH 4.6, H2O, 17.0 × 10^-3 (5355 ppm)
[9] = 0.5 M NaOAc pH 4.6, Serum, 17.0 × 10^-3 (5355 ppm)

## CN1CCC2(CC1)OCC(C)(C)N2Cl
[1]; 0 days
  %Cl (percentage of positive chlorine in the sample analyzed): 10.6%
[1]; 1 day
  %Cl (percentage of positive chlorine in the sample analyzed): 10.2% and 10.3%
[1]; 2 days
  %Cl (percentage of positive chlorine in the sample analyzed): 10.3% and 9.8%
[1]; 3 days
  %Cl (percentage of positive chlorine in the sample analyzed): 9.8% and 10.0%
[1]; 4 days
  %Cl (percentage of positive chlorine in the sample analyzed): 9.4%
[1]; 5 days
  %Cl (percentage of positive chlorine in the sample analyzed): 9.7%
[1]; 7 days
  %Cl (percentage of positive chlorine in the sample analyzed): 9.3% and 9.7%
[1]; 10 days
  %Cl (percentage of positive chlorine in the sample analyzed): 9.8%
[1]; 14 days
  %Cl (percentage of positive chlorine in the sample analyzed): 8.8% and 9.0%
[1]; 21 days
  %Cl (percentage of positive chlorine in the sample analyzed): 9.4%
[1]; 28 days
  %Cl (percentage of positive chlorine in the sample analyzed): 9.4% and 9.1%
[1]; 35 days
  %Cl (percentage of positive chlorine in the sample analyzed): 8.9% and 9.0%
[1]; 51 days
  %Cl (percentage of positive chlorine in the sample analyzed): 8.0%
[2]; [6]
  Antibacterial activity, time, 9027: > 10 min
[2]; [7]
  Antibacterial activity, time, 9027: 1 min
[2]; [8]
  Antibacterial activity, time, 9027: 0.5 min
[2]; [9]
  Antibacterial activity, time, 9027: 1 min
Staph. aureus ATCC 6538; [6]
  Antibacterial activity, time, 6538: > 10 min
Staph. aureus ATCC 6538; [7]
  Antibacterial activity, time, 6538: 4 min
Staph. aureus ATCC 6538; [8]
  Antibacterial activity, time, 6538: 1 min
Staph. aureus ATCC 6538; [9]
  Antibacterial activity, time, 6538: 6 min
[3]; [6]
  Antibacterial activity, time, 10031: > 10 min
[3]; [7]
  Antibacterial activity, time, 10031: 1 min
[3]; [8]
  Antibacterial activity, time, 10031: 0.5 min
[3]; [9]
  Antibacterial activity, time, 10031: 1 min
[4]; [6]
  Antibacterial activity, time, 12228: > 10 min
[4]; [7]
  Antibacterial activity, time, 12228: 4 min
[4]; [8]
  Antibacterial activity, time, 12228: 0.5 min
[4]; [9]
  Antibacterial activity, time, 12228: 2 min
6501; [6]
  Antibacterial activity, time, 6501: > 10 min
6501; [7]
  Antibacterial activity, time, 6501: 1 min
6501; [8]
  Antibacterial activity, time, 6501: 0.5 min
6501; [9]
  Antibacterial activity, time, 6501: 1 min
[5]; [6]
  Antibacterial activity, time, 4617: > 10 min
[5]; [7]
  Antibacterial activity, time, 4617: 1 min
[5]; [8]
  Antibacterial activity, time, 4617: 0.5 min
[5]; [9]
  Antibacterial activity, time, 4617: 1 min
E. coli ATCC 10536; [6]
  Antibacterial activity, time, 10536: 4 min
E. coli ATCC 10536; [7]
  Antibacterial activity, time, 10536: 1 min
E. coli ATCC 10536; [8]
  Antibacterial activity, time, 10536: 0.5 min
E. coli ATCC 10536; [9]
  Antibacterial activity, time, 10536: 0.5 min
